Measurements: paper PMC9527238, “Glutamate and GABAA receptor crosstalk mediates homeostatic regulation of neuronal excitation in the mammalian brain” (Signal Transduction and Targeted Therapy, 2022)

Biological target: T1, rat α1β2 GABAARs (Rattus norvegicus, UniProt P62813+P63138)
T1 construct: expressed in transfected cells; host or cells: HEK293
Test: Whole-cell patch clamp of GABA-evoked currents, HEK293 cells expressing α1β2
Format: cell-based
Excerpt: Co-expression of the α and β subunits is the minimum requirement for a functional recombinant GABAAR expressed in a heterologous cell line such as HEK293, while co-expression of the α, β and γ subunits is required for the recombinant receptor with a full pharmacological profile.[2] We therefore transiently expressed either rat α1β2 or α1β2γ2 subunits in HEK293 cells.
HEK293 cells were transiently transfected with rat GABAAR α1/β2 (a–e) or α1/β2/γ2 (f) subunits. Whole-cell voltage-clamp recordings were performed with a chloride-based intracellular recording solution at a holding membrane potential of −60 mV.
HEK293 cells were cultured in DMEM (Invitrogen) supplemented with 10% fetal bovine serum. Cells were grown to 40–60% confluence and transiently transfected using Lipofectamine 2000 (Invitrogen) with 1:0.5–1 plasmid/lipid ratio. Cells were transfected with a pBK-CMV expression vector containing a rat recombinant GABAAR α, β or γ subunits. Co-transections were done with a plasmid ratio of 1:1 αβ and 2:2:1 for αβγ subunit combinations, respectively. pcDNA3.1-GFP was also co-transfected along with GABAAR subunits as a transfected marker in order to facilitate the visualization of the transfected cells during electrophysiological experiments. Cells were re-plated on glass coverslips after 15–20 h transfection and were cultured for an additional 15–24 h before whole-cell patch-clamp recordings.
Whole-cell patch-clamp recordings were performed under voltage-clamp mode using an Axopatch 200B or 1D patch-clamp amplifier (Molecular Devices) on HEK293 cells and cultured neurons. Whole-cell currents were recorded at a holding potential of −60 mV, and signals were filtered at 2 kHz, digitized at 10 kHz (Digidata 1322 A). Recording pipettes (3–5 MΩ) were filled with the intracellular solution that contained (mM): CsCl 140, HEPES 10, Mg-ATP 4, QX-314 5, pH 7.20; osmolarity, 290–295 mOsm. BAPTA (10 mM) was added in the intracellular solution. The coverslips were continuously superfused with the extracellular solution containing (mM): NaCl 140, KCl 5.4, HEPES 10, MgCl2 1.0, CaCl2 1.3, glucose 20, pH 7.4; osmolarity, 305–315 mOsm. […] Dose–response curves were created by fitting data to Hill equation: I = Imax/[1 + (EC50/[A])^n], where I is the current, Imax is the maximum current, [A] is a given concentration of agonist, n is the Hill coefficient. […] All experiments were performed at room temperature.

T1 sequence (P62813 28-455): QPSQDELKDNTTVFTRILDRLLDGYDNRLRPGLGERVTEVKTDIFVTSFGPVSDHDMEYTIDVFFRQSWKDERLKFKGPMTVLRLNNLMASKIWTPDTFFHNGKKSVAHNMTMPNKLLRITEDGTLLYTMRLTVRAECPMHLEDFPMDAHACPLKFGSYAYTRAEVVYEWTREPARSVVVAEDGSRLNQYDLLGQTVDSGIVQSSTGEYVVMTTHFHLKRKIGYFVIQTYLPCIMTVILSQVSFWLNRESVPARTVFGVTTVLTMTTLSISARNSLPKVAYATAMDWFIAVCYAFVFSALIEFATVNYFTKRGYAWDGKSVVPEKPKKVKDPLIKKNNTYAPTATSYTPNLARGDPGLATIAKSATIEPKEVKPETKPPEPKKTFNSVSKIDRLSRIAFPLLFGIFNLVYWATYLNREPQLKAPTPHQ
T1 sequence (P63138 26-474): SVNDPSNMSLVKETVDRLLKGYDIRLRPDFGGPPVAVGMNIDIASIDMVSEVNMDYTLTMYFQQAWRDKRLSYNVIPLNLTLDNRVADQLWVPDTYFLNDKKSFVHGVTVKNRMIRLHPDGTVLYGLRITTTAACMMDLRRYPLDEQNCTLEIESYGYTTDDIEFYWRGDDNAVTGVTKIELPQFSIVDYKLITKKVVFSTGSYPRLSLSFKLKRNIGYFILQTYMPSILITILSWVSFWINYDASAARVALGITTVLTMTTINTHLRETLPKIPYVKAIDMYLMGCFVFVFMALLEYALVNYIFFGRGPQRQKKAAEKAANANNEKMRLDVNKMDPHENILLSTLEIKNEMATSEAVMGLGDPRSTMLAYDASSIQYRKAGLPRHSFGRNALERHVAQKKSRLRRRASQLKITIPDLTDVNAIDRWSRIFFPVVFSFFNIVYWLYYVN

N[C@@H](CCC(=O)O)C(=O)O [glutamate, Glutamate]
amplitude of GABA-induced currents with glutamate co-applied: 331.2 ± 44.5%
current produced by glutamate on its own: no noticeable current
lowest effective dose (20% potentiation): around 30 μM
potentiation effect at saturated GABA concentration: almost no potentiation effect
EC50 (potentiation of 1 μM GABA-induced currents, read-out: EC50 of glutamate potentiation): ~180 µM
